{"source": "patent US11104630B2", "about": "“Synthesis of mono-chlorinated acetophenone” (SIEGFRIED AG, priority 2017, dated 2021)", "assay": "Solubility of the starting material in the solvent", "type": "physicochemical", "details": "solvent MTBE, 20° C., until clear solution", "method": "Solubility of the Starting Material in the Solvent\nTo 1 g of HAP is added 5 ml of solvent. The mixture is stirred in a water bath at 20° C. The solvent is further slowly added under stirring until a clear solution appears.\nThe amount of used solvent is noted."}
{"smiles": "CC(=O)c1cccc(O)c1", "note": "[HAP, 3-hydroxy-acetophenon]", "values": [{"measurement": "Solvent in ml per g HAP", "value": 9, "unit": "ml per g HAP"}]}
